What follows are compounds tested against T1, PIP4K2C (Homo sapiens, UniProt Q8TBX8) (assay: HiBiT PIP4K2C degradation assay in MOLT-4 cells (endogenous PIP4K2C C-terminally tagged with HiBiT)). Conditions: 24 hours incubation, MOLT-4, top concentration 10 micromolar; read-out: HiBIT-degradation MOLT4 PIP4k2C 24 hours DC50.
T1 sequence (Q8TBX8 1-421): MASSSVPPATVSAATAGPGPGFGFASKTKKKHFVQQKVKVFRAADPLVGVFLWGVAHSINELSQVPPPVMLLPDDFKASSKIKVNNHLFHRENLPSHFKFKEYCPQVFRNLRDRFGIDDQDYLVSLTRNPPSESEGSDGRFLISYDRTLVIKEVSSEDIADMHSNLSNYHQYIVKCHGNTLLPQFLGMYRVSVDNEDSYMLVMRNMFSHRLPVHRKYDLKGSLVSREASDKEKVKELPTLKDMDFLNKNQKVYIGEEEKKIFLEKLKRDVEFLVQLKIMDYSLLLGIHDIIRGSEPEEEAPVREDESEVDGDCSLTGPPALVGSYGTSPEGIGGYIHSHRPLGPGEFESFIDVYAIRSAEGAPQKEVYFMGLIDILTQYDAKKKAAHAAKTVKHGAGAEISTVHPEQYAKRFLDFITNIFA
Type: cell-based
Design: untagged in primary human PBMCs and monocyte-derived dendritic cells
Method in brief: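 DC50 derived by Hill fit of luminescence from Nano-Glo HiBiT lytic detection. Cells were HiBiT knock-in MOLT-4 (C-terminal tag on endogenous PIP4K2C), exposed 6 h or 24 h at 37 C to compound, top concentration 10 micromolar, 3-fold steps, 10 points, duplicates.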

| Compound | DC50 |
| --- | --- |
| Cn1c(=O)n(C2CCC(=O)NC2=O)c2ccc(C3CCN(C4CCN(CC(=O)N5CCC[C@H](Nc6ncc(Cl)c(-c7cccc(-c8ccccc8)c7)n6)C5)CC4)CC3)cc21 (stereo partly drawn) [Compound 75, 3-(5-(1′-(2-((S)-3-((4-([1,1′-biphenyl]-3-yl)-5-chloropyrimidin-2-yl)amino)piperidin-1-yl)-2-oxoethyl)-[1,4′-bipiperidin]-4-yl)-3-methyl-2-oxo-2,3-dihydro-1H-benzo[d]imidazol-1-yl)piperidine-2,6-dione] | < 500 nM |
| O=C1CCC(N2Cc3cc(C4CCN(CCN5CCC(C(=O)N6CCC[C@H](Nc7ncc(Cl)c(-c8cccc(-c9ccccc9)c8)n7)C6)CC5)CC4)ccc3C2=O)C(=O)N1 (stereo partly shown) [Compound 78] | < 500 nM |
| O=C1CCC(N2Cc3cc(OC4CCN(C(=O)CN5CCC(C(=O)N6CCC(Nc7ncc(Cl)c(-c8cccc(-c9ccccc9)c8)n7)CC6)CC5)CC4)ccc3C2=O)C(=O)N1 (stereo not shown) [Compound 83, 3-(5-((1-(2-(4-(4-((4-([1,1′-biphenyl]-3-yl)-5-chloropyrimidin-2-yl)amino)piperidine-1-carbonyl)piperidin-1-yl)acetyl)piperidin-4-yl)oxy)-1-oxoisoindolin-2-yl)piperidine-2,6-dione] | < 500 nM |
| O=C1CCC(Nc2ccc(N3CCC(N4CCN(CCC(=O)N5CCC(Nc6ncc(Cl)c(-c7cccc(-c8ccccc8)c7)n6)CC5)CC4)CC3)cc2)C(=O)N1 (stereo not shown) [Compound 84, 3-((4-(4-(4-(3-(4-((4-([1,1′-biphenyl]-3-yl)-5-chloropyrimidin-2-yl)amino)piperidin-1-yl)-3-oxopropyl)piperazin-1-yl)piperidin-1-yl)phenyl)amino)piperidine-2,6-dione] | < 500 nM |
| O=C1CCC(N2Cc3cc(OC4CCN(CC5CCN(CC(=O)N6CCC(Nc7ncc(Cl)c(-c8cccc(-c9ccccc9)c8)n7)CC6)CC5)CC4)ccc3C2=O)C(=O)N1 (stereo not shown) [Compound 85, 3-(5-((1-((1-(2-(4-((4-([1,1′-biphenyl]-3-yl)-5-chloropyrimidin-2-yl)amino)piperidin-1-yl)-2-oxoethyl)piperidin-4-yl)methyl)piperidin-4-yl)oxy)-1-oxoisoindolin-2-yl)piperidine-2,6-dione] | < 500 nM |
| O=C1CCC(N2Cc3cc(C4CCN(C5CCN(CCC(=O)N6CCC(Nc7ncc(Cl)c(-c8cccc(-c9ccccc9)c8)n7)CC6)CC5)CC4)ccc3C2=O)C(=O)N1 (stereo not shown) [Compound 86, 3-(5-(1′-(3-(4-((4-([1,1′-biphenyl]-3-yl)-5-chloropyrimidin-2-yl)amino)piperidin-1-yl)-3-oxopropyl)-[1,4′-bipiperidin]-4-yl)-1-oxoisoindolin-2-yl)piperidine-2,6-dione] | 500 to 1000 nM |
| O=C1CCC(N2Cc3cc(OC4CCN(C5CCN(CC(=O)N6CCC(Nc7ncc(Cl)c(-c8cccc(-c9ccccc9)c8)n7)CC6)CC5)CC4)ccc3C2=O)C(=O)N1 (stereo not shown) [Compound 87, 3-(5-((1′-(2-(4-((4-([1,1′-biphenyl]-3-yl)-5-chloropyrimidin-2-yl)amino)piperidin-1-yl)-2-oxoethyl)-[1,4′-bipiperidin]-4-yl)oxy)-1-oxoisoindolin-2-yl)piperidine-2,6-dione] | < 500 nM |
| O=C1CCC(N2Cc3cc(C4CCN(CCN5CCC(C(=O)N6CCC(Nc7ncc(Cl)c(-c8cccc(-c9ccccc9)c8)n7)CC6)CC5)CC4)ccc3C2=O)C(=O)N1 (stereo not shown) [Compound 88, 3-(5-(1-(2-(4-(4-((4-([1,1′-biphenyl]-3-yl)-5-chloropyrimidin-2-yl)amino)piperidine-1-carbonyl)piperidin-1-yl)ethyl)piperidin-4-yl)-1-oxoisoindolin-2-yl)piperidine-2,6-dione] | < 500 nM |
| O=C1CCC(N2Cc3cc(OC4CCN(CCN5CCC(C(=O)N6CCC(Nc7ncc(Cl)c(-c8cccc(-c9ccccc9)c8)n7)CC6)CC5)CC4)ccc3C2=O)C(=O)N1 (stereo not shown) [Compound 89, 3-(5-((1-(2-(4-(4-((4-([1,1′-biphenyl]-3-yl)-5-chloropyrimidin-2-yl)amino)piperidine-1-carbonyl)piperidin-1-yl)ethyl)piperidin-4-yl)oxy)-1-oxoisoindolin-2-yl)piperidine-2,6-dione] | < 500 nM |
| O=C1CCC(N2Cc3cc(OC4CCN(C5CCN(CCC(=O)N6CCC(Nc7ncc(Cl)c(-c8cccc(-c9ccccc9)c8)n7)CC6)CC5)CC4)ccc3C2=O)C(=O)N1 (stereo not shown) [Compound 90, 3-(5-((1′-(3-(4-((4-([1,1′-biphenyl]-3-yl)-5-chloropyrimidin-2-yl)amino)piperidin-1-yl)-3-oxopropyl)-[1,4′-bipiperidin]-4-yl)oxy)-1-oxoisoindolin-2-yl)piperidine-2,6-dione] | < 500 nM |
| Cn1c(=O)n(C2CCC(=O)NC2=O)c2ccc(C3CCN(C4CCCN(CC(=O)N5CCC(Nc6ncc(Cl)c(-c7cccc(-c8ccc(F)cc8)c7)n6)CC5)C4)CC3)cc21 (stereo not shown) [Compound 275, 3-(5-(1′-(2-(4-((5-chloro-4-(4′-fluoro-[1,1′-biphenyl]-3-yl)pyrimidin-2-yl)amino)piperidin-1-yl)-2-oxoethyl)-[1,3′-bipiperidin]-4-yl)-3-methyl-2-oxo-2,3-dihydro-1H-benzo[d]imidazol-1-yl)piperidine-2,6-dione] | < 500 nM |
| Cn1c(=O)n(C2CCC(=O)NC2=O)c2ccc(C3CCN(CC4CCN(CC(=O)N[C@H]5CC[C@H](Nc6ncc(Cl)c(-c7cccc(-c8ccc(F)cc8)c7)n6)CC5)CC4)CC3)cc21 (stereo partly drawn) [Compound 276, trans-N-(4-((5-chloro-4-(4′-fluoro-[1,1′-biphenyl]-3-yl)pyrimidin-2-yl)amino)cyclohexyl)-2-(4-((4-(1-(2,6-dioxopiperidin-3-yl)-3-methyl-2-oxo-2,3-dihydro-1H-benzo[d]imidazol-5-yl)piperidin-1-yl)methyl)piperidin-1-yl)acetamide] | < 500 nM |
| Cn1nc(C2CCC(=O)NC2=O)c2ccc(C3CCN(CC4CCN(CC(=O)N5CCC(Nc6ncc(Cl)c(-c7cccc(-c8ccc(F)cc8)c7)n6)CC5)CC4)CC3)cc21 (stereo not shown) [Compound 277, 3-(6-(1-((1-(2-(4-((5-chloro-4-(4′-fluoro-[1,1′-biphenyl]-3-yl)pyrimidin-2-yl)amino)piperidin-1-yl)-2-oxoethyl)piperidin-4-yl)methyl)piperidin-4-yl)-1-methyl-1H-indazol-3-yl)piperidine-2,6-dione] | 500 to 1000 nM |
| Cn1nc(C2CCC(=O)NC2=O)c2ccc(C3CCN(C(=O)C4(O)CCN(CC(=O)N5CCC(Nc6ncc(Cl)c(-c7cccc(-c8ccc(F)cc8)c7)n6)CC5)CC4)CC3)cc21 (stereo not shown) [Compound 278, 3-(6-(1-(1-(2-(4-((5-chloro-4-(4′-fluoro-[1,1′-biphenyl]-3-yl)pyrimidin-2-yl)amino)piperidin-1-yl)-2-oxoethyl)-4-hydroxypiperidine-4-carbonyl)piperidin-4-yl)-1-methyl-1H-indazol-3-yl)piperidine-2,6-dione] | < 500 nM |
| Cn1c(=O)n(C2CCC(=O)NC2=O)c2ccc(C3CCN(CCC4CCN(C(=O)[C@@H]5CCC[C@H](Nc6ncc(Cl)c(-c7cccc(-c8ccccc8)c7)n6)C5)CC4)CC3)cc21 (stereo partly drawn) [Compound 280, 3-(5-(1-(2-(1-((1R,3S)-3-((4-([1,1′-biphenyl]-3-yl)-5-chloropyrimidin-2-yl)amino)cyclohexane-1-carbonyl)piperidin-4-yl)ethyl)piperidin-4-yl)-3-methyl-2-oxo-2,3-dihydro-1H-benzo[d]imidazol-1-yl)piperidine-2,6-dione] | < 500 nM |
| Cn1c(=O)n(C2CCC(=O)NC2=O)c2ccc(C3CCN(CCC4CCN(C(=O)[C@H]5CCC[C@@H](Nc6ncc(Cl)c(-c7cccc(-c8ccccc8)c7)n6)C5)CC4)CC3)cc21 (stereo partly drawn) [Compound 281, 3-(5-(1-(2-(1-((1S,3R)-3-((4-([1,1′-biphenyl]-3-yl)-5-chloropyrimidin-2-yl)amino)cyclohexane-1-carbonyl)piperidin-4-yl)ethyl)piperidin-4-yl)-3-methyl-2-oxo-2,3-dihydro-1H-benzo[d]imidazol-1-yl)piperidine-2,6-dione] | < 500 nM |
| O=C1CCC(c2ccc(N3CCC(O)(CC(=O)N4CCC(C(=O)N5CCC(Nc6ncc(Cl)c(-c7cccc(-c8ccc(F)cc8)c7)n6)CC5)CC4)CC3)c(F)c2)C(=O)N1 (stereo not shown) [Compound 282, 3-(4-(4-(2-(4-(4-((5-chloro-4-(4′-fluoro-[1,1′-biphenyl]-3-yl)pyrimidin-2-yl)amino)piperidine-1-carbonyl)piperidin-1-yl)-2-oxoethyl)-4-hydroxypiperidin-1-yl)-3-fluorophenyl)piperidine-2,6-dione] | < 500 nM |
| O=C1CCC(Nc2ccc(N3CCC(N4CCC(C(=O)N[C@H]5CC[C@H](Nc6ncc(Cl)c(-c7cccc(-c8ccc(F)cc8)c7)n6)CC5)CC4)CC3)cc2)C(=O)N1 (stereo partly drawn) [Compound 285, trans-N-(4-((5-chloro-4-(4′-fluoro-[1,1′-biphenyl]-3-yl)pyrimidin-2-yl)amino)cyclohexyl)-1′-(4-((2,6-dioxopiperidin-3-yl)amino)phenyl)-[1,4′-bipiperidine]-4-carboxamide] | < 500 nM |
| Cn1c(=O)n(C2CCC(=O)NC2=O)c2ccc(C3CCN(CC4CCN(CC(=O)N5CCC(Nc6ncc(F)c(-c7cccc(-c8ccccc8)c7)n6)CC5)CC4)CC3)cc21 (stereo not shown) [Compound 286, 3-(5-(1-((1-(2-(4-((4-([1,1′-biphenyl]-3-yl)-5-fluoropyrimidin-2-yl)amino)piperidin-1-yl)-2-oxoethyl)piperidin-4-yl)methyl)piperidin-4-yl)-3-methyl-2-oxo-2,3-dihydro-1H-benzo[d]imidazol-1-yl)piperidine-2,6-dione] | < 500 nM |
